Holding throughout (assay): Dundee protein kinase screen
Holding throughout (assay type): biochemical

One experiment concerns the target MINK1 (Homo sapiens, UniProt Q8N4C8). Particulars: MINK1, 1µM; read-out: %Remaining activity at 1µM NU6300. The procedure:
(§1) Prior to determining its cellular activity, we carried out a screen to assess its selectivity against a panel of 131 protein kinases under conditions that would not distinguish between a reversible or irreversible mode of action. […] These 13 kinases and 29 additional kinases, selected for their known sensitivity to other inhibitors within the purine series, were then tested in a modified screening format in which the assay was repeated following a 4-hr pre-incubation (Table S3B). […] However, conformational flexibility around the active site may promote such an interaction with a residue from another part of the structure ([Martin et al., 2012]).
(§2) Table S3, Related to Figure 4. NCL-0006300 protein kinase selectivity. (A) NU6300 was tested at a single concentration of 1µM against 131 protein kinases present in a Dundee protein kinase screen (Bain et al., 2007). Values given are % activity remaining and are the average of duplicate measurements: 0-25% (red), 26-50% (yellow), 51-80% (black) and above 81% (green). The kinase domain sequences (as defined by UniProt) of […]
(§3) have a lysine residue at a position close to CDK2 Lys88 or Lys89. However, in the structure of tyrosine-protein kinase BTK (PDB ID: 3GEN) the residue equivalent to CDK2 Asp86 is Cys481 and therefore there is the potential for a covalent adduct to be formed through this side chain. Ephrin type-B receptor 3 (UniProt entry P54753) also encodes a cysteine residue (Cys717) that by sequence alignment would be predicted to be close to the CDK2 lysine pair. (B) Selected kinases were re-tested in the Dundee kinase screen against NU6300 at a single concentration of 0.5 µM both in the standard assay format and following a 4 hour pre-incubation in the presence of NU6300. Kinases which have very low activity after the 4 hour incubation so that results might not be wholly reliable are boxed in salmon. Kinases where the activity after a 4 hour pre-incubation is < 50% that in the standard assay format are highlighted in red.

The next experiment has as its target T1, MST2 (Homo sapiens, UniProt Q13188).
T1 sequence (Q13188 1-491): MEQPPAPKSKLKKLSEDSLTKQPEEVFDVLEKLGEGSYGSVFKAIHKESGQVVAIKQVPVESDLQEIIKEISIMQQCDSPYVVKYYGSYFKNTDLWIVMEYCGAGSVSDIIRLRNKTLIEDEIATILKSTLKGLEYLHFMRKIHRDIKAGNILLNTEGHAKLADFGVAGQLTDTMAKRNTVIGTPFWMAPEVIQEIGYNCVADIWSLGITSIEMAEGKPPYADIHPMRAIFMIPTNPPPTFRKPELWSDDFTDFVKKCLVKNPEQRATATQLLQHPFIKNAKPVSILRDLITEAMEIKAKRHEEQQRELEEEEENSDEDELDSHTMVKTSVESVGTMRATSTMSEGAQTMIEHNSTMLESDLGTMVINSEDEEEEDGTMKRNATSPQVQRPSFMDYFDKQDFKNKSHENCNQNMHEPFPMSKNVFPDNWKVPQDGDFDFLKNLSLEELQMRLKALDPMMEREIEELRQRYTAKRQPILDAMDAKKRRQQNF
Particulars: MST2, 1µM; read-out: %Remaining activity at 1µM NU6300. The procedure: as §1, §2, §3

The target of the next experiment is DAPK1 (Homo sapiens, UniProt P53355). Particulars: DAPK1, 1µM; read-out: %Remaining activity at 1µM NU6300. The procedure: as §1, §2, §3
In another experiment the target is TIE2 (Homo sapiens, UniProt Q02763). Particulars: TIE2, 1µM; read-out: %Remaining activity at 1µM NU6300. The procedure: as §1, §2, §3
The next experiment deals with p38α MAPK (Homo sapiens, UniProt Q16539). Particulars: read-out: %Remaining activity at 1µM NU6300. The procedure:
as §1, §2, §3

A further experiment addresses T2, EPH-B3 (Homo sapiens, UniProt P54753).
T2 sequence (P54753 34-998): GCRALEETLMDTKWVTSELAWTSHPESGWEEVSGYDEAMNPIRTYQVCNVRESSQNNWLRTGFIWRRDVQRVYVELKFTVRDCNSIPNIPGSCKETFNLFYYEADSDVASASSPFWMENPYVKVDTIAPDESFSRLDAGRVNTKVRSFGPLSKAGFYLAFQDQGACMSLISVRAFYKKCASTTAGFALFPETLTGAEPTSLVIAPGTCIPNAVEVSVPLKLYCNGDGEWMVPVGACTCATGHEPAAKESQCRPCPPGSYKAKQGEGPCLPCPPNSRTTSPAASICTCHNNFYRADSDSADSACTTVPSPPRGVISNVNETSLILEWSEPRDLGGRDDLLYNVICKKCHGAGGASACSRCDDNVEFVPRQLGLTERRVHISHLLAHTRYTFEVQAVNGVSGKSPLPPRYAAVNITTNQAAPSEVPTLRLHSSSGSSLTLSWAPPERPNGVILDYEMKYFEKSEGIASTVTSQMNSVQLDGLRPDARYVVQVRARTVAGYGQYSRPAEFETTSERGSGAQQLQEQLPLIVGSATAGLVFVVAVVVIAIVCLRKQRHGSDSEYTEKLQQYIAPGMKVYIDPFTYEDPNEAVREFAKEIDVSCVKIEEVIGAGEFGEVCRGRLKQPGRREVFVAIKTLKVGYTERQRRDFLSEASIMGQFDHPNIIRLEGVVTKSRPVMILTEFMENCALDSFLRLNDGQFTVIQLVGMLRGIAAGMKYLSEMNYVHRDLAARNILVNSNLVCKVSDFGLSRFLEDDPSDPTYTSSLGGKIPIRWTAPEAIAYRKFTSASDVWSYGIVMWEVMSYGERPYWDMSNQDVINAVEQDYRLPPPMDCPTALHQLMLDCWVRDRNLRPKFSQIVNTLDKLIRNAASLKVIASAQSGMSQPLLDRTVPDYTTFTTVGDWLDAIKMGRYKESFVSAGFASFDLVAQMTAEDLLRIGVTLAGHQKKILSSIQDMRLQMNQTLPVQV
Particulars: EPH-B3, 1µM; read-out: %Remaining activity at 1µM NU6300. The procedure:
as §1, §2, §3

Chain of p38α MAPK (Q16539 whole entry): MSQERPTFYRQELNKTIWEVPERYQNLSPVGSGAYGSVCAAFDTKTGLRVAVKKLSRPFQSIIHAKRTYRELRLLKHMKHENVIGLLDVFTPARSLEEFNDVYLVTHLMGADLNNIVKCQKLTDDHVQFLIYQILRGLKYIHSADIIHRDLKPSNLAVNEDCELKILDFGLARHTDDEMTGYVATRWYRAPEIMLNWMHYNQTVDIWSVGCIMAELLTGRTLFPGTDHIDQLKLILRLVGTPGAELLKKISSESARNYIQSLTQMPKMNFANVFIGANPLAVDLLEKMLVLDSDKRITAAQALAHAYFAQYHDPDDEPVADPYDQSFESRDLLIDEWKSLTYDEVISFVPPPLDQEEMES
Chain of TIE2 (Q02763 23-1124): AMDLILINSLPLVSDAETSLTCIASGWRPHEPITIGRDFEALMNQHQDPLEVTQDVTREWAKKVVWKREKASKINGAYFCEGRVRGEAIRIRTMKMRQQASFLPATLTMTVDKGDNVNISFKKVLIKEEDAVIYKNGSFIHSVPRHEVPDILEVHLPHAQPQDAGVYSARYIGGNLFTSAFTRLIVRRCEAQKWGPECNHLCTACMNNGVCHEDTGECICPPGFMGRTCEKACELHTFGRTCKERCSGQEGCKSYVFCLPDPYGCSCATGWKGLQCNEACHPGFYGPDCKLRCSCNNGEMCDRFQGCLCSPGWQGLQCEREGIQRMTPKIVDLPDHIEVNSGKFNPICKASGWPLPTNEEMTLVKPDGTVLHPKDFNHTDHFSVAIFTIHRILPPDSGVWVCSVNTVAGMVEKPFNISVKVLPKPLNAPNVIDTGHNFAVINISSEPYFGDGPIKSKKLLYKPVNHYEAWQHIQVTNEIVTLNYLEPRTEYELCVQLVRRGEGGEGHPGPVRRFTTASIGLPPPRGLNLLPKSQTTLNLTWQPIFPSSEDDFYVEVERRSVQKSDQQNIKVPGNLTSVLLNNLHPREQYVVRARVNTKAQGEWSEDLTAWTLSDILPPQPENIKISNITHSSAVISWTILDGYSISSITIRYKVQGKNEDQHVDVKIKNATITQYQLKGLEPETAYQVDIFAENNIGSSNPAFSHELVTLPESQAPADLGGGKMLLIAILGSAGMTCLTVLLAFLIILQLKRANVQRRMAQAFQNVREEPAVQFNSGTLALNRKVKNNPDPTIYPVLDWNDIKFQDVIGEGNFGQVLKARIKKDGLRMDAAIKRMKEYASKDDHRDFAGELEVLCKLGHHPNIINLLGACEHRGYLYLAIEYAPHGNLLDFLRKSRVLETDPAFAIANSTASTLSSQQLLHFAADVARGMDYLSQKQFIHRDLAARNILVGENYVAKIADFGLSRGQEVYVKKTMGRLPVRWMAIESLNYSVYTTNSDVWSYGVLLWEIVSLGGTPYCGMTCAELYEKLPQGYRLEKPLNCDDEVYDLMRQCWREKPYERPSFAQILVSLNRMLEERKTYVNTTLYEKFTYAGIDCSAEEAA
Chain of DAPK1 (P53355 whole entry): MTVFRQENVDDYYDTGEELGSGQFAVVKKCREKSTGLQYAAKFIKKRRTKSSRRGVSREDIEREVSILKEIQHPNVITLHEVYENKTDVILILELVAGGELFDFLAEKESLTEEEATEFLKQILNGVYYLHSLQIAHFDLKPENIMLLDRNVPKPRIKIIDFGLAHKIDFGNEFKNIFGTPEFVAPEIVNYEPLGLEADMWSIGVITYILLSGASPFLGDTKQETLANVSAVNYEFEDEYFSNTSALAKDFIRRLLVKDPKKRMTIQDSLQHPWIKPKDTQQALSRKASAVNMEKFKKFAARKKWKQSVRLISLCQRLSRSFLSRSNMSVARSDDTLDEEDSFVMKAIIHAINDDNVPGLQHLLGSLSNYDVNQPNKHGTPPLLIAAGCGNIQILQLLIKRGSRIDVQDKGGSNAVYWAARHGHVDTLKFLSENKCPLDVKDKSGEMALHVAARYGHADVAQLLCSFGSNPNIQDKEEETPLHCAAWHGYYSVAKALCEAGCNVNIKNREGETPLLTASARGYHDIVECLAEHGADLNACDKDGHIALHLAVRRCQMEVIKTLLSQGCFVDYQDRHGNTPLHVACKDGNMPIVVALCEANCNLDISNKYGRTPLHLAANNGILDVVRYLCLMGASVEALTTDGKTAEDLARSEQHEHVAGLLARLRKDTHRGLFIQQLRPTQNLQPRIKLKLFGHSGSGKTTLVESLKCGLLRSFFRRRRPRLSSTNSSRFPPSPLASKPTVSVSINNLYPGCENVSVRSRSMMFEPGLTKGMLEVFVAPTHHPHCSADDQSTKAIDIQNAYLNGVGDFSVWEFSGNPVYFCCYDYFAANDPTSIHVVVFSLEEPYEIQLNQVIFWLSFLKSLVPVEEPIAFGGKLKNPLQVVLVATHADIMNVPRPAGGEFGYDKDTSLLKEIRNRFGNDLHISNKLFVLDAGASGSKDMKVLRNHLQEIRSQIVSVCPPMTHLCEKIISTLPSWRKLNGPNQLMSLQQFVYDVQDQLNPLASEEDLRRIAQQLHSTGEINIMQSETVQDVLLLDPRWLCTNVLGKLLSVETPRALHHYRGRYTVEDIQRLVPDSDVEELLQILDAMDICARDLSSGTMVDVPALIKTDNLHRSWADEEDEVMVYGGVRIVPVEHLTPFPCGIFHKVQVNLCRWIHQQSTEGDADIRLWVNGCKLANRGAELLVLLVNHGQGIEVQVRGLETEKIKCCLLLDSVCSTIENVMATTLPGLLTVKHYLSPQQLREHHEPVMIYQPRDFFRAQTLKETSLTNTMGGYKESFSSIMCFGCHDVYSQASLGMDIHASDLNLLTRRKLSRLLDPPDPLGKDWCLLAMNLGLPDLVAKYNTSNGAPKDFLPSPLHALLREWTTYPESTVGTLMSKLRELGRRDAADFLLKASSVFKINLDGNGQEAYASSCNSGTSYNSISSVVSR
Chain of MINK1 (Q8N4C8 whole entry): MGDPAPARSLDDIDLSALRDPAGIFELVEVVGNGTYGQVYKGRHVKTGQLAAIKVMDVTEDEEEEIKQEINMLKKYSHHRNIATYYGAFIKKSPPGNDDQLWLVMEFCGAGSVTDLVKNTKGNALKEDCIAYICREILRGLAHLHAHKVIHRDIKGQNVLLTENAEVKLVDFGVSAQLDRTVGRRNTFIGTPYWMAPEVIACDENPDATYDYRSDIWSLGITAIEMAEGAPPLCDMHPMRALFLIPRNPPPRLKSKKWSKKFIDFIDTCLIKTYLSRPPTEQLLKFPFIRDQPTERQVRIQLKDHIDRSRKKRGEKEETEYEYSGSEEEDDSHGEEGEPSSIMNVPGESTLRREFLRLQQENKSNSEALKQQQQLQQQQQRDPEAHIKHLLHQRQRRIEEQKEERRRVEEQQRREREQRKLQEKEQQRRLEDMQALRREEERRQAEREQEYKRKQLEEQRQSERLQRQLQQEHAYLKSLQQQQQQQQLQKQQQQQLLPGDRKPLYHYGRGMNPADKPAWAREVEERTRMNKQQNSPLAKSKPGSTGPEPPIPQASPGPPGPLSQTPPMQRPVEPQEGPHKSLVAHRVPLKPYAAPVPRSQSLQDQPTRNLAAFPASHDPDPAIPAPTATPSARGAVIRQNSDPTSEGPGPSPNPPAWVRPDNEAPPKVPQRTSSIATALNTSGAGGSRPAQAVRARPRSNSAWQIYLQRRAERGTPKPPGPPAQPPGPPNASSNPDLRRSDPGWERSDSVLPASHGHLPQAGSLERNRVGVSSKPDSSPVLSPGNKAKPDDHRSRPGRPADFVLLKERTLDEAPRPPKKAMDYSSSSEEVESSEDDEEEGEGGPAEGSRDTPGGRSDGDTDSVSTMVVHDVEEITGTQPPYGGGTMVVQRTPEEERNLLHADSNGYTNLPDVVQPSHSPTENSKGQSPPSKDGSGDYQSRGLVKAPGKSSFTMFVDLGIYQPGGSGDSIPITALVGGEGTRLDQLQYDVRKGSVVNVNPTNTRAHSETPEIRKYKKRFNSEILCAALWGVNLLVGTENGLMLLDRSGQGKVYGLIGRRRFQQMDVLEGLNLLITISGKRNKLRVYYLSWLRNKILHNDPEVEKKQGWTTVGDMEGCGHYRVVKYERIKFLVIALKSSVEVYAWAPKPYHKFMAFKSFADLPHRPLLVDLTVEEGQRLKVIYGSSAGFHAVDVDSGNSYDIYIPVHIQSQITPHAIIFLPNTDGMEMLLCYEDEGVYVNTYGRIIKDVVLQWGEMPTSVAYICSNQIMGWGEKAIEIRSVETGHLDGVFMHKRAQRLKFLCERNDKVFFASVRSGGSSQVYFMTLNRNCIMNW

Regarding `C=CS(=O)(=O)c1ccc(Nc2nc(OCC3CCCCC3)c3nc[nH]c3n2)cc1` [NU6300, 6-(cyclohexylmethoxy)-N-(4-(vinylsulfonyl)phenyl)-9H-purin-2-amine], the remaining activity at 1 µM on MINK1 was found to be 69%; on MST2, 41%; on DAPK1, 83%; on TIE2, 122%; at p38α MAPK it was 81%; at EPH-B3 it was 14%.

The term remaining activity denotes the signal under treatment as a percentage of the control signal.

The values above are taken from paper PMC4579270, “Identification and Characterization of an Irreversible Inhibitor of CDK2” (Chemistry & Biology, 2015).
